Measurements reported in patent EP0115640A2, “Substituted 4-imidazolyl-pyrazoles, process for their preparation and medicaments containing them” (BAYER AG, priority 1983, dated 1984).

test system: Thrombozytenaggregation; assay: Inhibition of collagen-induced platelet aggregation in platelet-rich plasma (turbidimetric method, aggregometer); assay type: cell-based, Human; settings: Homo sapiens, Platelet; PRP, 37°C, aggregation triggered with Kollagensuspension; minimal concentration that inhibits aggregation; read-out: Hemmung der Thrombozytenaggregation minimal effektive Konzentration
From the text: Thrombozytenaggregationshemmung
Für die Bestimmung der thrombozytenaggregationshemmenden Wirkung wurde Blut von gesunden Spendern, die mindestens 14 Tage lang kein Medikament eingenommen hatten, verwendet. Das Blut wurde in 3,8 %-iger Natriumcitratlösung aufgenommen. Plättchenreiches Plasma (PRP) wurde durch 20 Minuten Zentrifugation bei 150 g und Raumtemperatur gewonnen (Jürgens/Beller: Klinische Methoden der Blutgerinnungsanalyse; Thieme-Verlag Stuttgart 1959). Die Plättchenaggregation wurde nach der turbidometrischen Methode (Born, G.V.R.: J. Physiol. 162, 67 (1962)) im Aggregometer bei 37°C bestimmt. Hierzu wurde PRP mit Prüfsubstanz bei 37°C inkubiert und anschließend die Aggregation durch Zugabe einer Kollagensuspension ausgelöst. Bestimmt wurde die minimale Konzentration einer Prüfsubstanz, die die Thrombozytenaggregation hemmte.
In diesem Test wird die Thrombozytenaggregation insbesondere durch die Verbindungen folgender Herstellungsbeispiele gehemmt: 1, 2, 9 und 15.

| SMILES | minimal effective concentration |
| --- | --- |
| Cn1cc(-n2ccnc2)c(C(C)(C)COc2ccc(Cl)cc2)n1 [Beispiel 15] | 30 µg/mL |
| c1c[nH]cn1 [Imidazol] | 30 µg/mL |

same assay, conditions: result in words, PRP, collagen-induced

| SMILES | Thrombozytenaggregation gehemmt |
| --- | --- |
| Cn1cc(-n2ccnc2)c(C(C)(C)COc2ccc(Cl)cc2)n1 [Beispiel 15] | gehemmt |
| Cn1cc(-n2ccnc2)c(C(C)(C)C)n1 [Beispiel 2, 3-tert.-Butyl-1-methyl-4-(imidazol-1-yl)-pyrazol] | gehemmt |
| CC(C)(COc1ccc(Cl)cc1Cl)c1n[nH]cc1-n1ccnc1 [Beispiel 9] | gehemmt |
| CC(C)(C)c1n[nH]cc1-n1ccnc1 [Beispiel 1] | gehemmt |
